Results published in patent US20260193236A1 (Protego Biopharma, Inc., priority 2022, published 2026).

Test system: IRE1-XBP1s (XBP1-RLuc splicing reporter in HEK293 T-REx cells)
Assay: IRE1-XBP1s activation assay (XBP1-RLuc splicing reporter, HEK293 T-REx cells, luminescence relative to thapsigargin)
Format: cell-based
Conditions: 18 h, compound 10 μM, HEK293 T-REx XBP1-RLuc reporter cells, relative to thapsigargin (Tg) 500 nM, read-out: Activity (IRE1-XBP1s activation, luminescence as % signal relative to thapsigargin, % Tg)
Procedure: IRE1-XBP1s activation Assay: HEK293 T-REx cells stably expressing the XBP1-RLuc splicing reporter were treated with an IRE1-XBP1s activator provided herein (10 μM) in the presence or absence of the IRE1 active site inhibitor 4μ8C (32 μM) for 18 h. Luminescence was shown as the percentage signal relative to thapsigargin (Tg) (500 nM, 18 h).

SMILES | activation at 10 µM [%]
CCc1nccnc1NCCC(=O)Nc1cnn(CC(=O)N(C)CCOc2ccc(C)cc2)c1 [Compound 142] | 30 to 50
Cc1ccc(OCCN(C)C(=O)Cn2cc(NC(=O)CCNc3cc(F)ncc3F)cn2)cc1 [Compound 143] | < 30
Cc1ccc(OCCN(C)C(=O)Cn2cc(NC(=O)CCNc3cccc(F)n3)cn2)cc1 [Compound 144] | > 50
Cc1ccc(OCCN(C)C(=O)Cn2cc(NC(=O)CCNc3cc(Cl)ccn3)cn2)cc1 [Compound 145] | < 30
Cc1ccc(OCCN(C)C(=O)Cn2cc(NC(=O)CCNc3ncccc3F)cn2)cc1 [Compound 146] | 30 to 50
Cc1ccc(OCCN(C)C(=O)Cn2cc(NC(=O)CCNc3nccnc3Cl)cn2)cc1 [Compound 147] | > 50
Cc1ccc(OCCN(C)C(=O)Cn2cc(NC(=O)CCNc3ncccc3Cl)cn2)cc1 [Compound 148] | 30 to 50
Cc1ccc(OCCN(C)C(=O)Cn2cc(NC(=O)CCNc3ccnc(Cl)c3)cn2)cc1 [Compound 149] | > 50
Cc1ccc(OCCN(C)C(=O)Cn2cc(NC(=O)CCNc3c(F)cncc3Cl)cn2)cc1 [Compound 150] | 30 to 50
Cc1ccc(OCCN(C)C(=O)Cn2cc(NC(=O)CCNc3cncc(Cl)n3)cn2)cc1 [Compound 151] | 30 to 50
Cc1ccc(OCCN(C)C(=O)Cn2cc(NC(=O)CCNc3c(Cl)cncc3Cl)cn2)cc1 [Compound 152] | > 50
Cc1ccc(OCCN(C)C(=O)Cn2cc(NC(=O)CCNc3ccnc(N)c3)cn2)cc1 [Compound 153] | < 30
Cc1ccc(OCCN(C)C(=O)Cn2cc(NC(=O)CCNc3cccc(N)n3)cn2)cc1 [Compound 154] | > 50
Cc1ccc(OCCN(C)C(=O)Cn2cc(NC(=O)CCNc3ccncc3)cn2)cc1 [Compound 155] | < 30
Cc1ccc(OCCN(C)C(=O)Cn2cc(NC(=O)CCNc3cccc(Cl)n3)cn2)cc1 [Compound 156] | > 50
Cc1ccc(OCCN(C)C(=O)Cn2cc(NC(=O)CCNc3ccc(C#N)cn3)cn2)cc1 [Compound 157] | < 30
Cc1ccc(OCCN(C)C(=O)Cn2cc(NC(=O)CCNc3ccnc(N)n3)cn2)cc1 [Compound 158] | < 30
Cc1ccc(OCCN(C)C(=O)Cn2cc(NC(=O)CCNc3nc(C)ccc3F)cn2)cc1 [Compound 159] | 30 to 50
Cc1ccc(OCCN(C)C(=O)Cn2cc(NC(=O)CCNc3cccc(C)n3)cn2)cc1 [Compound 160] | 30 to 50
Cc1ccc(OCCN(C)C(=O)Cn2cc(NC(=O)CCNc3ncncc3C(C)C)cn2)cc1 [Compound 161] | > 50
Cc1ccc(OCCN(C)C(=O)Cn2cc(NC(=O)C(CNc3ncc(F)cn3)CC(C)C)cn2)cc1 (centres unmarked) [Compound 162] | < 30
Cc1ccc(OCCN(C)C(=O)Cn2cc(NC(=O)C(O)CNc3ncc(F)cn3)cn2)cc1 (centres unmarked) [Compound 163] | < 30
Cc1ccc(OCCN(C)C(=O)Cn2cc(NC(=O)CCNc3ccnc(C)c3)cn2)cc1 [Compound 164, N-(1-(2-(methyl(2-(p-tolyloxy)ethyl)amino)-2-oxoethyl)-1H-pyrazol-4-yl)-3-((2-methylpyridin-4-yl)amino)propanamide] | 30 to 50
Cc1ccc(OCCN(C)C(=O)Cn2cc(NC(=O)CCNc3ccc(OCc4ccccc4)cn3)cn2)cc1 [Compound 165] | < 30
COc1ccc(OCCN(C)C(=O)Cn2cc(NC(=O)CCNc3ccnc(C)c3)cn2)cc1 [Compound 166] | < 30
Cc1ccc(OCCN(C)C(=O)Cn2cc(NC(=O)C(CNc3ccc(F)nc3C)c3ccccc3)cn2)cc1 (centres unmarked) [Compound 167] | < 30
COc1ccc(OCCN(C)C(=O)Cn2cc(NC(=O)CCNc3cc(C)ncc3C)cn2)cc1 [Compound 168] | 30 to 50
COc1ccc(OCCN(C)C(=O)Cn2cc(NC(=O)CCNc3ccnc(OC)c3)cn2)cc1 [Compound 169] | > 50
Cc1ccc(OCCN(C)C(=O)Cn2cc(NC(=O)[C@H](C)CNc3ccc(F)nc3C)cn2)cc1 [Compound 170] | 30 to 50
